Measurements: ChEMBL document CHEMBL6182864, “Design, synthesis and biological evaluation of 3-amino-6-(2-hydroxyphenyl)pyridazin-4-aryl derivatives as SMARCA2/4 degraders” (Eur J Med Chem, 2025)
One block for each molecule: values may come before it. Calls of active or inactive are those of the source. No cut-off for these calls is given here.

Columns and labels:
MV4-11 [1] = experiment: cells; settings: Homo sapiens, MV4-11, 72 h
MOLM-13 [2] = experiment: cells; settings: Homo sapiens, MOLM-13, 72 h
MOLM-13 [3] = experiment: Induction of SMARCA2 degradation in human MOLM-13 cells at 10 uM measured after 72 hrs by Western blotting analysis; assay type: cell-based
MOLM-13 [4] = experiment: Induction of SMARCA4 degradation in human MOLM-13 cells at 10 uM measured after 72 hrs by Western blotting analysis; assay type: cell-based
MV4-11 [5] = experiment: Induction of apoptosis in human MV4-11 cells assessed as viable cells at 100 nM measured after 72 hrs by Annexin-V-FITC/propidium iodide staining based flow cytometry (reference value: 89.49%); assay type: functional; settings: read-out: Activity
MV4-11 [6] = experiment: Induction of apoptosis in human MV4-11 cells assessed as early apoptotic cells at 100 nM measured after 72 hrs by Annexin-V-FITC/propidium iodide staining based flow cytometry (reference value: 9.32%); assay type: functional
MV4-11 [7] = experiment: Induction of apoptosis in human MV4-11 cells assessed as late apoptotic cells at 100 nM measured after 72 hrs by Annexin-V-FITC/propidium iodide staining based flow cytometry (reference value: 1.09%); assay type: functional
MV4-11 [8] = experiment: Induction of apoptosis in human MV4-11 cells assessed as necrotic cells at 100 nM measured after 72 hrs by Annexin-V-FITC/propidium iodide staining based flow cytometry (reference value: 0.1%); assay type: functional
MOLM-13 [9] = experiment: Induction of apoptosis in human MOLM-13 cells assessed as viable cells at 100 nM measured after 72 hrs by Annexin-V-FITC/propidium iodide staining based flow cytometry (reference value: 90.28%); assay type: functional; settings: read-out: Activity
MOLM-13 [10] = experiment: Induction of apoptosis in human MOLM-13 cells assessed as early apoptotic cells at 100 nM measured after 72 hrs by Annexin-V-FITC/propidium iodide staining based flow cytometry (reference value: 5.57%); assay type: functional
MOLM-13 [11] = experiment: Induction of apoptosis in human MOLM-13 cells assessed as late apoptotic cells at 100 nM measured after 72 hrs by Annexin-V-FITC/propidium iodide staining based flow cytometry (reference value: 3.87%); assay type: functional
MOLM-13 [12] = experiment: Induction of apoptosis in human MOLM-13 cells assessed as necrotic cells at 100 nM measured after 72 hrs by Annexin-V-FITC/propidium iodide staining based flow cytometry (reference value: 0.28%); assay type: functional
MV4-11 [13] = experiment: Induction of apoptosis in human MV4-11 cells assessed as viable cells at 300 nM measured after 72 hrs by Annexin-V-FITC/propidium iodide staining based flow cytometry (reference value: 89.49%); assay type: functional; settings: read-out: Activity
MV4-11 [14] = experiment: Induction of apoptosis in human MV4-11 cells assessed as early apoptotic cells at 300 nM measured after 72 hrs by Annexin-V-FITC/propidium iodide staining based flow cytometry (reference value: 9.32%); assay type: functional
MV4-11 [15] = experiment: Induction of apoptosis in human MV4-11 cells assessed as late apoptotic cells at 300 nM measured after 72 hrs by Annexin-V-FITC/propidium iodide staining based flow cytometry (reference value: 1.09%); assay type: functional
MV4-11 [16] = experiment: Induction of apoptosis in human MV4-11 cells assessed as necrotic cells at 300 nM measured after 72 hrs by Annexin-V-FITC/propidium iodide staining based flow cytometry (reference value: 0.1%); assay type: functional
MOLM-13 [17] = experiment: Induction of apoptosis in human MOLM-13 cells assessed as viable cells at 300 nM measured after 72 hrs by Annexin-V-FITC/propidium iodide staining based flow cytometry (reference value: 90.28%); assay type: functional; settings: read-out: Activity
MOLM-13 [18] = experiment: Induction of apoptosis in human MOLM-13 cells assessed as early apoptotic cells at 300 nM measured after 72 hrs by Annexin-V-FITC/propidium iodide staining based flow cytometry (reference value: 5.57%); assay type: functional
MOLM-13 [19] = experiment: Induction of apoptosis in human MOLM-13 cells assessed as late apoptotic cells at 300 nM measured after 72 hrs by Annexin-V-FITC/propidium iodide staining based flow cytometry (reference value: 3.87%); assay type: functional
MOLM-13 [20] = experiment: Induction of apoptosis in human MOLM-13 cells assessed as necrotic cells at 300 nM measured after 72 hrs by Annexin-V-FITC/propidium iodide staining based flow cytometry (reference value: 0.28%); assay type: functional
MV4-11 [21] = experiment: Induction of apoptosis in human MV4-11 cells assessed as viable cells at 1000 nM measured after 72 hrs by Annexin-V-FITC/propidium iodide staining based flow cytometry (reference value: 89.49%); assay type: functional; settings: read-out: Activity
MV4-11 [22] = experiment: Induction of apoptosis in human MV4-11 cells assessed as early apoptotic cells at 1000 nM measured after 72 hrs by Annexin-V-FITC/propidium iodide staining based flow cytometry (reference value: 9.32%); assay type: functional
MV4-11 [23] = experiment: Induction of apoptosis in human MV4-11 cells assessed as late apoptotic cells at 1000 nM measured after 72 hrs by Annexin-V-FITC/propidium iodide staining based flow cytometry (reference value: 1.09%); assay type: functional
MV4-11 [24] = experiment: Induction of apoptosis in human MV4-11 cells assessed as necrotic cells at 1000 nM measured after 72 hrs by Annexin-V-FITC/propidium iodide staining based flow cytometry (reference value: 0.1%); assay type: functional
MOLM-13 [25] = experiment: Induction of apoptosis in human MOLM-13 cells assessed as viable cells at 1000 nM measured after 72 hrs by Annexin-V-FITC/propidium iodide staining based flow cytometry (reference value: 90.28%); assay type: functional; settings: read-out: Activity
MOLM-13 [26] = experiment: Induction of apoptosis in human MOLM-13 cells assessed as early apoptotic cells at 1000 nM measured after 72 hrs by Annexin-V-FITC/propidium iodide staining based flow cytometry (reference value: 5.57%); assay type: functional
MOLM-13 [27] = experiment: Induction of apoptosis in human MOLM-13 cells assessed as late apoptotic cells at 1000 nM measured after 72 hrs by Annexin-V-FITC/propidium iodide staining based flow cytometry (reference value: 3.87%); assay type: functional
MOLM-13 [28] = experiment: Induction of apoptosis in human MOLM-13 cells assessed as necrotic cells at 1000 nM measured after 72 hrs by Annexin-V-FITC/propidium iodide staining based flow cytometry (reference value: 0.28%); assay type: functional

Structure (SMILES): Cc1ncsc1-c1ccc(CNC(=O)[C@@H]2C[C@@H](O)CN2C(=O)[C@@H](NC(=O)CSc2ccc(-c3cc(-c4ccccc4O)nnc3N)cc2)C(C)(C)C)cc1
IC50 (MV4-11 [1]): 5770 nM
IC50 (MOLM-13 [2]): 7.78 µM

Structure (SMILES): NS(=O)(=O)OC[C@@H]1C[C@@H](n2ccc3c(N[C@H]4CCc5ccccc54)ncnc32)C[C@@H]1O
Activity (MOLM-13 [3]): Active
Activity (MOLM-13 [4]): Active

Structure (SMILES): Cc1ncsc1-c1ccc(CNC(=O)[C@@H]2C[C@@H](O)CN2C(=O)[C@@H](NC(=O)c2ccc(-c3cc(-c4ccccc4O)nnc3N)cc2)C(C)(C)C)cc1
IC50 (MV4-11 [1]): 5070 nM
IC50 (MOLM-13 [2]): 9.61 µM

Structure (SMILES): Cc1ncsc1-c1ccc([C@H](C)NC(=O)[C@@H]2C[C@@H](O)CN2C(=O)[C@@H](NC(=O)CSc2ccc(-c3cc(-c4ccccc4O)nnc3N)cc2)C(C)(C)C)cc1
IC50 (MV4-11 [1]): 5750 nM
IC50 (MOLM-13 [2]): 5.1 µM

Structure (SMILES): Cc1ncsc1-c1ccc([C@H](C)NC(=O)[C@@H]2C[C@@H](O)CN2C(=O)[C@@H](NC(=O)CCc2ccc(-c3cc(-c4ccccc4O)nnc3N)cc2)C(C)(C)C)cc1
IC50 (MV4-11 [1]): 3110 nM
IC50 (MOLM-13 [2]): 8.73 µM

Structure (SMILES): Cc1ncsc1-c1ccc(CNC(=O)[C@@H]2C[C@@H](O)CN2C(=O)[C@@H](NCc2ccc(-c3cc(-c4ccccc4O)nnc3N)cc2)C(C)(C)C)cc1
IC50 (MV4-11 [1]): 4780 nM
IC50 (MOLM-13 [2]): 4.67 µM

Structure (SMILES): CC(C)C[C@H](NC(=O)[C@H](Cc1ccccc1)NC(=O)c1cnccn1)B(O)O
Activity (MOLM-13 [3]): Active
Activity (MOLM-13 [4]): Active

Structure (SMILES): Cc1ncsc1-c1ccc([C@H](C)NC(=O)[C@@H]2C[C@@H](O)CN2C(=O)[C@@H](NCc2ccc(-c3cc(-c4ccccc4O)nnc3N)cc2)C(C)(C)C)cc1
IC50 (MV4-11 [1]): 3880 nM
IC50 (MOLM-13 [2]): 6.85 µM

Structure (SMILES): Cc1ncsc1-c1ccc([C@H](C)NC(=O)[C@@H]2C[C@@H](O)CN2C(=O)[C@@H](NC(=O)c2ccc(-c3cc(-c4ccccc4O)nnc3N)cc2)C(C)(C)C)cc1
IC50 (MV4-11 [1]): > 10000 nM
IC50 (MOLM-13 [2]): > 10 µM

Structure (SMILES): Cc1ncsc1-c1ccc([C@H](C)NC(=O)[C@@H]2C[C@@H](O)CN2C(=O)[C@@H](NC(=O)CN2CCN(c3cc(-c4ccccc4O)nnc3N)CC2)C(C)(C)C)cc1
viability at 0.1 µM (MV4-11 [5]): 24%
Activity (MV4-11 [6]): 52.03%
Activity (MV4-11 [7]): 22.53%
Activity (MV4-11 [8]): 1.43%
viability at 0.1 µM (MOLM-13 [9]): 53.7%
Activity (MOLM-13 [10]): 39.38%
Activity (MOLM-13 [11]): 6.71%
Activity (MOLM-13 [12]): 0.25%
viability at 0.3 µM (MV4-11 [13]): 19.1%
Activity (MV4-11 [14]): 52.83%
Activity (MV4-11 [15]): 26.43%
Activity (MV4-11 [16]): 1.63%
viability at 0.3 µM (MOLM-13 [17]): 21.8%
Activity (MOLM-13 [18]): 62.09%
Activity (MOLM-13 [19]): 15.85%
Activity (MOLM-13 [20]): 0.31%
viability at 1 µM (MV4-11 [21]): 18.5%
Activity (MV4-11 [22]): 56.45%
Activity (MV4-11 [23]): 24.02%
Activity (MV4-11 [24]): 1.01%
viability at 1 µM (MOLM-13 [25]): 13.9%
Activity (MOLM-13 [26]): 58.07%
Activity (MOLM-13 [27]): 27.77%
Activity (MOLM-13 [28]): 0.28%

The remaining molecules from weak to strong by IC50 (MV4-11 [1]), led by results:

IC50 (MV4-11 [1]): 2140 nM
IC50 (MOLM-13 [2]): 3.87 µM
Structure (SMILES): Cc1ncsc1-c1ccc(CNC(=O)[C@@H]2C[C@@H](O)CN2C(=O)[C@@H](NC(=O)CCc2ccc(-c3cc(-c4ccccc4O)nnc3N)cc2)C(C)(C)C)cc1

IC50 (MV4-11 [1]): 710 nM
IC50 (MOLM-13 [2]): 2.73 µM
Structure (SMILES): Cc1ncsc1-c1ccc(CNC(=O)[C@@H]2C[C@@H](O)CN2C(=O)[C@@H](NC(=O)Cc2ccc(-c3cc(-c4ccccc4O)nnc3N)cc2)C(C)(C)C)cc1

IC50 (MV4-11 [1]): 340 nM
IC50 (MOLM-13 [2]): 0.12 µM
Structure (SMILES): Cc1ncsc1-c1ccc([C@H](C)NC(=O)[C@@H]2C[C@@H](O)CN2C(=O)[C@@H](NC(=O)CCCc2ccc(-c3cc(-c4ccccc4O)nnc3N)cc2)C(C)(C)C)cc1

IC50 (MV4-11 [1]): 300 nM
IC50 (MOLM-13 [2]): 0.85 µM
Structure (SMILES): Cc1ncsc1-c1ccc(CNC(=O)[C@@H]2C[C@@H](O)CN2C(=O)[C@@H](NC(=O)COc2ccc(-c3cc(-c4ccccc4O)nnc3N)cc2)C(C)(C)C)cc1

IC50 (MV4-11 [1]): 240 nM
IC50 (MOLM-13 [2]): 3.82 µM
Structure (SMILES): Cc1ncsc1-c1ccc([C@H](C)NC(=O)[C@@H]2C[C@@H](O)CN2C(=O)[C@@H](NC(=O)Cc2ccc(-c3cc(-c4ccccc4O)nnc3N)cc2)C(C)(C)C)cc1

IC50 (MV4-11 [1]): 120 nM
IC50 (MOLM-13 [2]): 0.46 µM
Structure (SMILES): Cc1ncsc1-c1ccc([C@H](C)NC(=O)[C@@H]2C[C@@H](O)CN2C(=O)[C@@H](NC(=O)COc2ccc(-c3cc(-c4ccccc4O)nnc3N)cc2)C(C)(C)C)cc1

IC50 (MV4-11 [1]): 30 nM
IC50 (MOLM-13 [2]): 0.26 µM
Structure (SMILES): Cc1ncsc1-c1ccc(CNC(=O)[C@@H]2C[C@@H](O)CN2C(=O)[C@@H](NC(=O)C2(c3ccc(-c4cc(-c5ccccc5O)nnc4N)cc3)CC2)C(C)(C)C)cc1

IC50 (MV4-11 [1]): 20 nM
IC50 (MOLM-13 [2]): 1.45 µM
Structure (SMILES): Cc1ncsc1-c1ccc(CNC(=O)[C@@H]2C[C@@H](O)CN2C(=O)[C@@H](NC(=O)CCCc2ccc(-c3cc(-c4ccccc4O)nnc3N)cc2)C(C)(C)C)cc1
